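96-well plates; 48 h exposure; 5 concentrations. Endpoints by linear interpolation between flanking doses. Not reached: highest tested concentration assigned. At the GI50, growth is halved.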 Active and inactive are the calls of the source. No stated cut-off is given here; in the data, active = GI50 up to about 1.1 µM and inactive = higher.
Assays:
Test in all cases: DTP human tumour cell line panel, 48 h
MDA-N = tested on: MDA-N
MOLT-4 = tested on: MOLT-4
HT-29 = tested on: HT-29
HL-60 = tested on: HL-60
CAKI-1 = tested on: CAKI-1
TK-10 = tested on: TK-10
LOX IMVI = tested on: LOX IMVI
SK-OV-3 = tested on: SK-OV-3
K562 = tested on: K562
KM12 = tested on: KM12
SNB-19 = tested on: SNB-19
EKVX = tested on: EKVX
UACC-62 = tested on: UACC-62
T47D = tested on: T47D
SNB-75 = tested on: SNB-75
ACHN = tested on: ACHN
COLO 205 = tested on: COLO 205
U-251 = tested on: U-251
SW-620 = tested on: SW-620
NCI-H23 = tested on: NCI-H23

| Compound | GI50 (MDA-N) | GI50 (MOLT-4) | GI50 (HT-29) | GI50 (HL-60) | GI50 (CAKI-1) | GI50 (TK-10) | GI50 (LOX IMVI) | GI50 (SK-OV-3) | GI50 (K562) | GI50 (KM12) | GI50 (SNB-19) | GI50 (EKVX) | GI50 (UACC-62) | GI50 (T47D) | GI50 (SNB-75) | GI50 (ACHN) | GI50 (COLO 205) | GI50 (U-251) | GI50 (SW-620) | GI50 (NCI-H23) |
| --- | --- | --- | --- | --- | --- | --- | --- | --- | --- | --- | --- | --- | --- | --- | --- | --- | --- | --- | --- | --- |
| COc1cc(C(=O)Oc2c(C(C)=O)sc3c2c(=O)n(-c2ccccc2)c(=S)n3-c2ccccc2)cc(OC)c1OC | 22.8 µM (inactive) | 25 µM (inactive) | 11 µM (inactive) | 24.7 µM (inactive) | 33.9 µM (inactive) | 38.9 µM (inactive) | 18.7 µM (inactive) | 31.6 µM (inactive) | 33.6 µM (inactive) | 22.8 µM (inactive) | 24.7 µM (inactive) | 18.7 µM (inactive) | 23.9 µM (inactive) | 26.5 µM (inactive) | 19.8 µM (inactive) | 16.6 µM (inactive) | 15.7 µM (inactive) | 20.7 µM (inactive) | 25.2 µM (inactive) | 20.2 µM (inactive) |
| O=c1c2ccccc2nc(Nc2cccc(Cl)c2)n1/N=C/C=C/c1ccccc1 | > 100 µM (inactive) | > 100 µM (inactive) | 61.9 µM (inactive) | > 100 µM (inactive) | > 100 µM (inactive) | > 100 µM (inactive) | > 100 µM (inactive) | 70 µM (inactive) | > 100 µM (inactive) | > 100 µM (inactive) | 47.2 µM (inactive) | 80.7 µM (inactive) | 41.3 µM (inactive) | 64.9 µM (inactive) | 45.4 µM (inactive) | 50.7 µM (inactive) | > 100 µM (inactive) | 28.8 µM (inactive) | 51.5 µM (inactive) | 71.9 µM (inactive) |
| COc1cc2ncnc(Nc3cccc(Cl)c3)c2cc1OC [TYRPHOSTIN AG-1478] | 15.1 µM (inactive) | 16.4 µM (inactive) | 9.38 µM (inactive) | 21.8 µM (inactive) | 0.248 µM (active) | 0.173 µM (active) | 11.5 µM (inactive) | 0.472 µM (active) | 8.71 µM (inactive) | 5.73 µM (inactive) | 21 µM (inactive) | 0.392 µM (active) | 7.14 µM (inactive) | 9.55 µM (inactive) | 2.57 µM (inactive) | 0.0446 µM (active) | 17.9 µM (inactive) | 15.2 µM (inactive) | 16.1 µM (inactive) | 14.6 µM (inactive) |

From ChEMBL document CHEMBL1201862, “PubChem BioAssay data set” (2004)
